Experiments:
[1] = Description: The pH lowering ability of glycolide in its crystalline form, obtained from Purac Ltd., Holland, was tested in plasma at 37° C. as a function of time, compared to that of lactide and citric acid (also in crystalline form). All three materials were taken such as to eventually yield equal molar amounts of carboxylic acid groups.
[2] = remark: listed apart in the source
Description: The same experiment was repeated by comparing the pH lowering kinetics of the same compounds, deposited onto a polymeric support in the form of weighed (240 mg), rectangular shaped pieces of non-woven (NW) tampon cloth (hereinafter referred to as “strips”) by evaporation from an acetone solution, substantially as described in WO 02/17981 and U.S. 2002/0045873 whose contents are hereby incorporated by reference in their entireties. The strips may be incorporated in a tampon. The strips were dipped in plasma at 37° C.

release behaviour on strips (in words) ([2]; non-woven strips, plasma, 37° C. (FIG. 2))	time in which degradation was completed [1]	change in degradation rate when deposited on strips [2]	Structure (SMILES)	degradation / acid release kinetics (in words) [1]
behaved as previously described			O=C(O)CC(O)(CC(=O)O)C(=O)O [citric acid]	burst-like immediate release
	approximately 40 minutes	two-fold increase	O=C1COC(=O)CO1 [glycolide]	significantly faster than that of lactide
	approximately 120 minutes	two-fold increase	CC1OC(=O)C(C)OC1=O (stereo not shown) [lactide]	

Source: US7892218B2, “pH reducing formulation” (Rostam Ltd., priority 2004, dated 2011)
